# Measurements as given in patent US10689378B2, “Triazolopyridine compounds and uses thereof” (Novartis AG, priority 2016, dated 2020).
# Like-named read-outs stand apart in the source and are kept apart here.
# Tests used:
# [1] = molecular target: wild type PRC2 (wtPRC2) complex (Homo sapiens, UniProt O75530); assay: EED LC-MS assay (SAH production by PRC2); type: biochemical
# Protocol: Compounds of the present invention were assessed for their ability to inhibit PRC2 activity in a pentameric complex of EZH2, SUZ12, EED, Rbap48 and AEBP in biochemical assays. The ability of compounds of the present invention to inhibit cellular activity of PRC2 was assessed by analysing histone H3 lysine 27 methylation in human cell lines. The ability of compounds of the present invention to inhibit cancers was derived from their ability to modulate activity in human cancer cell lines bearing specific dependence to PRC2 activity to maintain cancerous growth.
# Representative compounds of the present invention were serially and separately diluted 3-fold in DMSO to obtain a total of eight or twelve concentrations. Then the test compounds at each concentration (120 nL of each) were transferred by Mosquito into a 384-well Perkin Elmer ProxiPlate 384 plus plates. Solutions (6 μL) of 24 nM the wild type PRC2 (wtPRC2) complex and 2 μM SAM in reaction buffer (20 mM Tris, pH 8.0, 0.1% BSA, 0.01% Triton, 0.5 mM DTT) were added to the wells that were then incubated with the test compound for 20 min. A 6 μL solution of 3 μM of the peptide substrate H3K27Me0 (histone H3[21-44]-biotin) in reaction buffer was added to initiate each reaction. The final components in the reaction solution include 12 nM wtPRC2 complex, 1 μM SAM, and 1.5 μM H3K27me0 peptide with varying concentration of the compounds. A positive control consisted of the enzyme, 1 μM SAM and 1.5 μM substrate in the absence of the test compound, and a negative control consisted of 1 μM SAM and 1.5 μM substrate only. Each reaction was incubated at rt for 120 min, then stopped by addition of 3 μL per of quench solution (2.5% TFA with 320 nM d4-SAH). The reaction mixture was centrifuged (Eppendorf centrifuge 5810, Rotor A-4-62) for 2 min at 2000 rpm and read on an API 4000 triple quadrupole mass spec with Turbulon Spray (Applied Biosystem) coupled with Prominence UFLC (Shimadzu). The levels of SAH production were then normalized based on the values coming from the positive and negative controls to give percent enzyme activities. The data were then fit to a dose response equation using the program Helios to get the IC50 values of the test compound.
# [2] = tested on: H3K27 methylation in G401 cell; assay: ELISA (H3K27 methylation) assay in G401 cells; type: cell-based, human; details: Homo sapiens
# Outline: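 G401 cells treated 48 h with 3-fold dilutions (8 or 12 points, top 20 μM). Acid-extracted histones probed by ELISA for H3K27me3 or H3K27me2 with ECL readout, normalized to total H3. Percent inhibition versus DMSO fitted to dose-response curve for IC50.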
# EED (1-441)-His protein = molecular target: T1, EED (1-441)-His protein (Homo sapiens, UniProt O75530); assay: EED-H3K27Me3 peptide competition binding assay by AlphaScreen
# T1 construct: 30 nM EED (1-441)-His protein
# T1 sequence (O75530 whole entry): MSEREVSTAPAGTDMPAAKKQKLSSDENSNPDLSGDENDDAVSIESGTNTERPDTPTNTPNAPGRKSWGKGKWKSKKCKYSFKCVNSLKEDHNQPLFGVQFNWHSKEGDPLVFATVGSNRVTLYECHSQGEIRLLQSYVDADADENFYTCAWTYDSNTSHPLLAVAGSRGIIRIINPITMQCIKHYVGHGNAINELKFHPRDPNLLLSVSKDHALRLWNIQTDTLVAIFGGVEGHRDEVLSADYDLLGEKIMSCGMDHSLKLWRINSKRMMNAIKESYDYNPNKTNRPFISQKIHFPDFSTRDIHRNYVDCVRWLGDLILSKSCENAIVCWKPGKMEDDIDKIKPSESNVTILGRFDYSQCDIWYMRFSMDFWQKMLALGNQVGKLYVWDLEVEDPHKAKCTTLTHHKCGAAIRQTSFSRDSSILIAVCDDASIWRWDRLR
# Outline: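 Serially diluted compound (12 points, 3-fold) incubated 20 min with 30 nM EED(1-441)-His and 15 nM biotin-H3K27Me3(19-33) peptide in 25 mM HEPES pH 8, 0.02% Tween-20, 0.5% BSA. Ni-chelate acceptor/streptavidin donor beads (10 μg/mL each) added, 1 h rt dark; 615 nm emission normalized to controls, dose-response fit for IC50.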
# [3] = read-out: (b) IC50, EED LC-MS Qualified
# [4] = G-401, read-out: (c) IC50, ELISA Qualified
# [5] = read-out: (a) IC50, EED Alphascreen binding Qualified
# [6] = PRC2 LC-MS assay, read-out: (b) IC50 EED LC-MS Qualified
# [7] = G-401, H3K27 methylation ELISA, read-out: (c) IC50 ELISA Qualified
# [8] = EED-H3K27Me3 peptide competition, AlphaScreen, read-out: (a) IC50 EED Alphascreen binding Qualified
# Sequence of wild type PRC2 (wtPRC2) complex (O75530 whole entry): as above
# Sequence of wild type PRC2 (wtPRC2) complex (Q15910 whole entry partner): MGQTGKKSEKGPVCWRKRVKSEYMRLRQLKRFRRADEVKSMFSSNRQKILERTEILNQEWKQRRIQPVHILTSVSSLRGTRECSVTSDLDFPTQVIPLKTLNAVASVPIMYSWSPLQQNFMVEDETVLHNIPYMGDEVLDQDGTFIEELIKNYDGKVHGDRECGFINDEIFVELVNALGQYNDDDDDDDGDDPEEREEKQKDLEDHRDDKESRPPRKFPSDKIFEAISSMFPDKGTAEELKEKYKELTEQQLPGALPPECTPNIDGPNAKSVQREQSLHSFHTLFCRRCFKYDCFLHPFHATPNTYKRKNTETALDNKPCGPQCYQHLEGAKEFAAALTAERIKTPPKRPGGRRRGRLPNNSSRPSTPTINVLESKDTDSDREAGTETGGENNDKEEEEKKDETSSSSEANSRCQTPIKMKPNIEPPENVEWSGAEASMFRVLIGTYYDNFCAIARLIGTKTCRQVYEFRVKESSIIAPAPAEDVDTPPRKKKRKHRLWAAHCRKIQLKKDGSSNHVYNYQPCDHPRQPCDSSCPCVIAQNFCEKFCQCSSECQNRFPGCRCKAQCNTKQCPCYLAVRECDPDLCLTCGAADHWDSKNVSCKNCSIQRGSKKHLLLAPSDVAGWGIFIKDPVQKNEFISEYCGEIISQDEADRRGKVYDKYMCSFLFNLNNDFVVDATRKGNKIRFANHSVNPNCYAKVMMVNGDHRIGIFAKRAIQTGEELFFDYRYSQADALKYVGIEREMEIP
# Sequence of wild type PRC2 (wtPRC2) complex (Q15022 whole entry partner): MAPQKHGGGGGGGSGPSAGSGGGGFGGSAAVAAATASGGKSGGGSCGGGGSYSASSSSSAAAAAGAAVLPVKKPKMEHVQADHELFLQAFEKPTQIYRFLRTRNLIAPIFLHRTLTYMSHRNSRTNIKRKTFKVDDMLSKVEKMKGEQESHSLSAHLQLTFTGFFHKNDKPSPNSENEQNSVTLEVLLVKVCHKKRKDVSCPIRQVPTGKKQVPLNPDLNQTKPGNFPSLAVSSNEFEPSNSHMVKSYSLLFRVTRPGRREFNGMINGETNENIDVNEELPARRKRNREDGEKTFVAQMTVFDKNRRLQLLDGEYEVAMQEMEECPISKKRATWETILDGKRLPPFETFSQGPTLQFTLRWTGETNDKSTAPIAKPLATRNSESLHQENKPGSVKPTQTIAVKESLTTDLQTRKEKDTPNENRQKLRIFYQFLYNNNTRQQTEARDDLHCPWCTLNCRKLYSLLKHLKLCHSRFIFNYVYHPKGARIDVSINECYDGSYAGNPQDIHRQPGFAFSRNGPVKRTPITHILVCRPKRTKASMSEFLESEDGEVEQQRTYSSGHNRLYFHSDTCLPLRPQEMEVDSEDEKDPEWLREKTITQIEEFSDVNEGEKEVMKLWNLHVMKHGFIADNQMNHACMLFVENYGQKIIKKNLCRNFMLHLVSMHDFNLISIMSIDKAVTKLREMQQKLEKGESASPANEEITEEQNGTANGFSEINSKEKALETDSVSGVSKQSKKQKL
# Sequence of wild type PRC2 (wtPRC2) complex (Q09028 whole entry partner): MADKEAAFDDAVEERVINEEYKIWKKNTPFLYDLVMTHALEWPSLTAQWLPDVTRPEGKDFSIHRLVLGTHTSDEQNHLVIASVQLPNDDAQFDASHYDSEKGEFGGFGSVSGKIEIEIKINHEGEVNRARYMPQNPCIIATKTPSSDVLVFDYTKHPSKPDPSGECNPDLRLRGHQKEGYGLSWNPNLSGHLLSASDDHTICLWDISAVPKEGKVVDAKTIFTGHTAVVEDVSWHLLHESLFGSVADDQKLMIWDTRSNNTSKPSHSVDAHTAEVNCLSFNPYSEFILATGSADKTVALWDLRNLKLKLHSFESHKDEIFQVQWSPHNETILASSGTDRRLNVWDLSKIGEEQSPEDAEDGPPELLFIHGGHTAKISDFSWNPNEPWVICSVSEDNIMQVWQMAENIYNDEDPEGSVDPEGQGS
# Sequence of wild type PRC2 (wtPRC2) complex (Q6ZN18 whole entry partner): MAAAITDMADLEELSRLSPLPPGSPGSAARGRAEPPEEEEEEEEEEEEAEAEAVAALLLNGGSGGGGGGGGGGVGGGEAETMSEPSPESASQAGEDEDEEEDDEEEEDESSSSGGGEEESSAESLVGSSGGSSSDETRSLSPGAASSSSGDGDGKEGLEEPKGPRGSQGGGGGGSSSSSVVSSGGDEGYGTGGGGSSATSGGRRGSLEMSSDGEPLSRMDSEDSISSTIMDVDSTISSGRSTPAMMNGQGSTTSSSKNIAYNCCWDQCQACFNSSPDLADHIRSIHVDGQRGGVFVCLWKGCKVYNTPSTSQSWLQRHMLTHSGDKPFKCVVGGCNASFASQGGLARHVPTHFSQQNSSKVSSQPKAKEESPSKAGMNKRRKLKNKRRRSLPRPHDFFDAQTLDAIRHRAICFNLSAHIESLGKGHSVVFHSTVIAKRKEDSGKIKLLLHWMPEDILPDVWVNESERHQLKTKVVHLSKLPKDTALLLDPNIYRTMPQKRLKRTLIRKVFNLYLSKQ
Compound,"IC50 [1, 3] [nM]","IC50 [2, 4] [nM]",IC50 (EED (1-441)-His protein; [5]) [nM],"IC50 [1, 6] [nM]","IC50 [2, 7] [nM]",IC50 (EED (1-441)-His protein; [8]) [nM]
"COc1cccc(F)c1CNc1ccc(-c2ccnn2C)c2nncn12 [Example 1, N-(2-Fluoro-6-methoxybenzyl)-8-(1-methyl-1H-pyrazol-5-yl)-[1,2,4]triazolo[4,3-a]pyridin-5-amine]",11.2,18.1,27.7,,,
"COc1cccc(F)c1CNc1ccc(-c2ccc(C(=O)N(C)C)nc2C)c2nncn12 [Example 269, 5-(5-((2-fluoro-6-methoxybenzyl)amino)-[1,2,4]triazolo[4,3-a]pyridin-8-yl)-N,N,6-trimethylpicolinamide]",,,,60.1,4.8,8.9
"COc1cccc(F)c1CNc1ccc(-c2cnccc2CO)c2nncn12 [Example 345, (3-(5-((2-fluoro-6-methoxy benzyl)amino)-[1,2,4]triazolo[4,3-a]pyridin-8-yl)pyridin-4-yl)methanol]",,,,24.5,10.4,7.6
"COc1ccccc1CNc1ccc(-c2ccc(CN3CCN(C)CC3)cc2)c2nncn12 [Example 39, N-(2-methoxybenzyl)-8-(4-((4-methylpiperazin-1-yl)methyl)phenyl)-[1,2,4] triazolo[4,3-a]pyridin-5-amine]",269,37.5,15.5,,,
"COc1ccc(-c2ccc(NCc3c(F)cccc3OC)n3cnnc23)c(C)n1 [Example 310, N-(2-fluoro-6-methoxybenzyl)-8-(6-methoxy-2-methylpyridin-3-yl)-[1,2,4] triazolo[4,3-a]pyridin-5-amine]",,,,56.1,16.6,13.6
"COc1cccc(F)c1CNc1ccc(-c2c(C)ccnc2F)c2nncn12 [Example 218, 8-(2-fluoro-4-methylpyridin-3-yl)-N-(2-fluoro-6-methoxybenzyl)-[1,2,4]triazolo[4,3-a] pyridin-5-amine]",,,,79.5,42,38.3
"COc1ccccc1CNc1ccc(-c2ccc(CN3CCOCC3)nc2)c2nncn12 [Example 38, N-(2-methoxybenzyl)-8-(6-(morpholinomethyl)pyridin-3-yl)-[1,2,4]triazolo[4,3-a] pyridin-5-amine]",438,46.9,32.5,,,
"COc1ccccc1CNc1ccc(-c2ccc(S(C)(=O)=O)nc2)c2nncn12 [Example 61, N-(2-methoxybenzyl)-8-(6-(methylsulfonyl)pyridin-3-yl)-[1,2,4]triazolo[4,3-a] pyridin-5-amine]",538,61.9,43.8,,,
"COc1ccccc1CNc1ccc(-c2ccnc(N3CCN(C)CC3)c2)c2nncn12 [Example 67, N-(2-methoxybenzyl)-8-(2-(4-methylpiperazin-1-yl)pyridin-4-yl)-[1,2,4] triazolo[4,3-a]pyridin-5-amine]",197,45,54.6,,,
"COc1cccc(F)c1CNc1ccc(-c2ccc(N3CCN(C(C)C)CC3)nc2)c2nncn12 [Example 130, N-(2-fluoro-6-methoxybenzyl)-8-(6-(4-isopropylpiperazin-1-yl)pyridin-3-yl)-[1,2,4]triazolo[4,3-a]pyridin-5-amine]",62.5,80.9,31.1,,,
"COc1cccc(F)c1CNc1ccc(-c2cn(C)nc2C(F)(F)F)c2nncn12 [Example 247, N-(2-fluoro-6-methoxybenzyl)-8-(1-methyl-3-(trifluoromethyl)-1H-pyrazol-4-yl)-[1,2,4]triazolo[4,3-a] pyridin-5-amine]",,,,700,42.7,35.8
"CN(C)Cc1ccc(-c2ccc(NCc3ccccc3OC(F)F)n3cnnc23)cc1 [Example 19, N-(2-(difluoromethoxy)benzyl)-8-(4-((dimethylamino)methyl)phenyl)-[1,2,4]triazolo[4,3-a] pyridin-5-amine]",587,363,169,,,
"COc1cccc(F)c1CNc1ccc(-c2ccc(OCCO)cc2)c2nncn12 [Example 157, 2-(4-(5-((2-fluoro-6-methoxybenzyl)amino)-[1,2,4]triazolo[4,3-a]pyridin-8-yl)phenoxy)ethanol]",152,43.1,40.4,,,
"COc1ccccc1CNc1ccc(-c2ccc(C(=O)N(C)C)cc2F)c2nncn12 [Example 71, 3-fluoro-4-(5-((2-methoxybenzyl)amino)-[1,2,4]triazolo[4,3-a]pyridin-8-yl)-N,N-dimethylbenzamide]",275,43.4,34.9,,,
"COc1cc(F)cc(F)c1CNc1ccc(-c2ccc(S(C)(=O)=O)nc2C)c2nncn12 [Example 241, N-(2,4-difluoro-6-methoxybenzyl)-8-(2-methyl-6-(methylsulfonyl)pyridin-3-yl)-[1,2,4]triazolo[4,3-a] pyridin-5-amine]",,,,56.2,12.6,16.2
"COc1cccc(F)c1CNc1ccc(-c2ccc(CCO)nc2)c2nncn12 [Example 183, 2-(5-(5-((2-fluoro-6-methoxybenzyl)amino)-[1,2,4]triazolo[4,3-a]pyridin-8-yl)pyridin-2-yl)ethanol]",,,,41.6,17.3,19.9
"COc1cccc(F)c1CNc1ccc(-c2ccc(S(=O)(=O)C3CCNCC3)cc2)c2nncn12 [Example 132, N-(2-fluoro-6-methoxybenzyl)-8-(4-(piperidin-4-ylsulfonyl)phenyl)-[1,2,4] triazolo[4,3-a]pyridin-5-amine]",64.9,21.8,69.1,,,
"COc1ccc(F)c(CNc2ccc(-c3ccc(S(C)(=O)=O)nc3)c3nncn23)c1 [Example 122, N-(2-fluoro-5-methoxybenzyl)-8-(6-(methylsulfonyl)pyridin-3-yl)-[1,2,4]triazolo[4,3-a] pyridin-5-amine]",,138,313,,,
"COc1cc(F)ccc1CNc1ccc(-c2ccc(N3CCN(C(C)C)CC3)nc2)c2nncn12 [Example 88, N-(4-fluoro-2-methoxybenzyl)-8-(6-(4-isopropylpiperazin-1-yl)pyridin-3-yl)-[1,2,4] triazolo[4,3-a]pyridin-5-amine]",,500,178,,,
"COc1cccc(F)c1CNc1ccc(-c2cnc(N(C)C)nc2)c2nncn12 [Example 141, 8-(2-(dimethylamino)pyrimidin-5-yl)-N-(2-fluoro-6-methoxybenzyl)-[1,2,4] triazolo[4,3-a]pyridin-5-amine]",,761,118,,,
"COc1ccc(F)c(CNc2ccc(-c3ccc(CN(C)C)cc3)c3nncn23)c1 [Example 49, 8-(4-((dimethylamino)methyl)phenyl)-N-(2-fluoro-5-methoxybenzyl)-[1,2,4] triazolo[4,3-a]pyridin-5-amine]",,140,164,,,
"COc1cc(F)ccc1CNc1ccc(-c2cnc(N3CCN(C(C)C)CC3)c(C(F)(F)F)c2)c2nncn12 [Example 90, N-(4-fluoro-2-methoxybenzyl)-8-(6-(4-isopropylpiperazin-1-yl)-5-(trifluoromethyl)pyridin-3-yl)-[1,2,4]triazolo[4,3-a] pyridin-5-amine]",,2130,410,,,
"COc1c(F)cccc1CNc1ccc(-c2ccc(S(C)(=O)=O)nc2)c2nncn12 [Example 136, N-(3-fluoro-2-methoxybenzyl)-8-(6-(methylsulfonyl)pyridin-3-yl)-[1,2,4]triazolo[4,3-a] pyridin-5-amine]",,11400,2880,,,
"COc1ccccc1CNc1ccc(-c2ccc(CN3CCCC3)cc2)c2nncn12 [Example 60, N-(2-methoxybenzyl)-8-(4-(pyrrolidin-1-ylmethyl)phenyl)-[1,2,4]triazolo[4,3-a] pyridin-5-amine]",,56.5,40.2,,,
